Legend:
lymph nodes = assay: dye tested on rabbits for staining of the lymph nodes; assay type: in vivo
Source text: The present invention in one embodiment therefore acts as a dye that stains the lymphatic channels of the body for identification of the sentinel lymph node.

[1] = rats bearing tumors; cited from earlier work

Substance	staining of the lymph nodes (lymph nodes)	in vivo stability of the complex [1]	tissue distribution (accumulation of most of the product) [1]	tumor uptake [1]
Tc-99m Phthalocyanine Tetrasulfonate [Tc-99m-PCTS]	successfully shown to stain the lymph nodes			
^99Tc-labeled-tetrasulfophtalocyanine [[^99Tc] TSPC]		absence of ^99Tc accumulation in the thyroid and the stomach	accumulated in the liver, kidneys, ovaries, and uterus	occurred mainly in the exterior cell layers

Reference: patent publication US7198775B2, “Detectably labeled porphyrin compound for identifying the sentinel lymph node” (The Trustees of Columbia University in the City of New York, priority 2000, dated 2007)
